According to PubChem BioAssay AID2060503 (Molecular Pharmacology Branch, DTP, NCI, 2025):

Tested on: 817829-284-R-J1-PDC complex spheroids, viability
Assay: Anticancer human tumor 817829-284-R-J1-PDC patient-derived colon adenocarcinoma cell line growth inhibition [GQUAD]
Conditions: for IC50: curve of first compound; for viability, T/C: stronger effect = lower value; active = viability on the fitted dose curve at most 10% of control; inactive = the rest
Source text: DNA G-quadruplex Stabilizer Agents in Combinations in Complex Spheroids
A high-throughput screen of multi-cell type tumor spheroids was designed to identify active combinations of DNA G-quadruplex stabilizer agents and targeted small molecules. Complex spheroids include a stromal component modeled by human endothelial cells (HUVEC) and fibroblasts modeled by human mesenchymal stem cells (MSCs). The concentration ranges selected for each drug and investigational agent were based upon clinically achievable concentrations if the clinical Cmax of the agent was known.
Compounds. The drugs and investigational agents: pidnarulex (CX-5461; NSC782164), APTO-253 (NSC789042), BRACO-19 (NSC847499), peposertib (NSC802822), ceralasertib (NSC780249), elimusertib (NSC800525), camonsertib (NSC841442), AZD-1390 (NSC803789), olaparib (NSC753686), talazoparib (NSC767125), ART-558 (NSC835418), sotorasib (NSC818433), MRTX-1133 (NSC836407), SN-38 (NSC673596), topotecan (NSC609699), etoposide (NSC141540), doxorubicin (NSC123127), gemcitabine (NSC613327), 5-fluorouracil (NSC19893), paclitaxel (NSC125973), vemurafenib (NSC761431), panobinostat (NSC761190), R-306465 (JNJ-16241199; NSC773264), adavosertib (NSC754352), TP-3654 (NSC805149), carboplatin (NSC241240), KSQ-4279 (NSC840948), and staurosporine (NSC755774) were obtained from the National Cancer Institute (NCI) Developmental Therapeutics Program Chemical Repository (34). The FDA-approved anticancer drug set is available from the NCI Developmental Therapeutics Program. […] The stock solutions were prepared in dimethyl sulfoxide (DMSO, Sigma-Aldrich, St. Louis, MO, cat. D2650) at 800-fold the tested concentration and stored at -70 degrees C prior to their use. All drugs and investigational agents were tested over a range starting from a high concentration at or near the clinical Cmax and decreasing in half-log increments. If the clinical Cmax for an agent had not been determined, the highest concentration tested was 10 microM.
2.3 Cell Culture. All cells were maintained in an incubator at 37 degrees C and 5% CO2 with 95% humidity. The PDC lines were cultured according to standard operating procedures established by the NCI PDMR. All PDCs were thawed and cultured in Matrigel-coated flasks prepared with a working solution of 1X Ham's F-12 nutrient mix, without supplementation (Invitrogen, cat. 11765054), 100 U/mL penicillin-streptomycin (Invitrogen, cat. 15140122), and 2.5% Matrigel (Corning Inc., cat. 354248) for the first three passages. The 857933-349-R-J2-PDC line was cultured in 6C/Colon 1B media, which includes advanced DMEM/F-12 (Thermo Fisher Scientific, cat. 12634028), 10 mM HEPES (Thermo Fisher Scientific, cat. 15630080), 1X GlutaMAX supplement (Thermo Fisher Scientific, cat. 35050061), 0.1 mg/mL primocin (InvivoGen, cat. ant-pm-2), 10% defined fetal bovine serum, heat inactivated (HyClone Laboratories Inc., cat. SH30070.03HI), 50% L-WRN conditioned media (ATCC, cat. CRL-3276), 1.25 mM N-Acetyl-L-cysteine (Sigma-Aldrich, cat. A9165), 10 mM nicotinamide (Sigma-Aldrich, cat. N0636), 1X B-27 supplement (Thermo Fisher Scientific, cat. 17504044), 1X N-2 supplement (Thermo Fisher Scientific, cat. 17502048), 10 microM Y-27632 dihydrochloride (Tocris Bioscience, cat. 1254), and 50 ng/mL human EGF recombinant protein (Thermo Fisher Scientific, cat. PHG0311). The 485176-168-R4-J1-PDC line was cultured in Panc media, which includes all 6C/Colon 1B media components plus 100 ng/mL human FGF-10 (Thermo Fisher Scientific, cat. 100-26), 500 nM SB-431542 (Selleckchem, cat. S1067), and gastrin (Tocris, cat. 3006).
[…]

[1] = second compound 0.0316 µM, first compound 0.0316 µM
[2] = second compound 0.0316 µM, first compound 0.1 µM
[3] = second compound 0.0316 µM, first compound 0.316 µM
[4] = second compound 0.0316 µM, first compound 1 µM
[5] = second compound 0.0316 µM, first compound 3.16 µM
[6] = second compound 0.0316 µM, first compound 10 µM
[7] = second compound 0.1 µM, first compound 0.0316 µM
[8] = second compound 0.1 µM, first compound 0.1 µM
[9] = second compound 0.1 µM, first compound 0.316 µM
[10] = second compound 0.1 µM, first compound 1 µM
[11] = second compound 0.1 µM, first compound 3.16 µM
[12] = second compound 0.1 µM, first compound 10 µM
[13] = second compound 0.316 µM, first compound 0.0316 µM
[14] = second compound 0.316 µM, first compound 0.1 µM
[15] = second compound 0.316 µM, first compound 0.316 µM
[16] = second compound 0.316 µM, first compound 1 µM
[17] = second compound 0.316 µM, first compound 3.16 µM
[18] = second compound 0.316 µM, first compound 10 µM
[19] = second compound 1 µM, first compound 0.0316 µM
[20] = second compound 1 µM, first compound 0.1 µM
[21] = second compound 1 µM, first compound 0.316 µM
[22] = second compound 1 µM, first compound 1 µM
[23] = second compound 1 µM, first compound 3.16 µM
[24] = second compound 1 µM, first compound 10 µM
[25] = second compound 3.16 µM, first compound 0.0316 µM
[26] = second compound 3.16 µM, first compound 0.1 µM
[27] = second compound 3.16 µM, first compound 0.316 µM
[28] = second compound 3.16 µM, first compound 1 µM
[29] = second compound 3.16 µM, first compound 3.16 µM
[30] = second compound 3.16 µM, first compound 10 µM
[31] = second compound 10 µM, first compound 0.0316 µM
[32] = second compound 10 µM, first compound 0.1 µM
[33] = second compound 10 µM, first compound 0.316 µM
[34] = second compound 10 µM, first compound 1 µM
[35] = second compound 10 µM, first compound 3.16 µM
[36] = second compound 10 µM, first compound 10 µM
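Note: spheroids exposed to agents for 7 days before readout.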
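Throughout, for viability, T/C: percent viability relative to DMSO vehicle control taken as 100%.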

COc1cc(C2c3cc4c(cc3C(OC3OC5COC(C)OC5C(O)C3O)C3COC(=O)C23)OCO4)cc(OC)c1O (centres undefined) + Cc1cnc(CNC(=O)c2c(=O)c3ccc(N4CCCN(C)CC4)nc3n3c2sc2ccccc23)cn1
inactive: viability, T/C [1] 57.3% | viability, T/C [2] 30.7% | viability, T/C [3] 35.5% | viability, T/C [4] 23.1% | viability, T/C [5] 15.1% | viability, T/C [7] 30.4% | viability, T/C [8] 31.3% | viability, T/C [9] 22.9% | viability, T/C [10] 24.6% | viability, T/C [11] 15% | viability, T/C [12] 6.35% | viability, T/C [13] 22.4% | viability, T/C [14] 27.7% | viability, T/C [15] 23.2% | viability, T/C [16] 21% | viability, T/C [17] 11.9% | viability, T/C [19] 18.7% | viability, T/C [20] 21.1% | viability, T/C [21] 18.8% | viability, T/C [22] 22.5% | viability, T/C [23] 12.2% | viability, T/C [25] 19.6% | viability, T/C [26] 22.5% | viability, T/C [27] 19.5% | viability, T/C [28] 15.9% | viability, T/C [29] 9.99%
active: viability, T/C [6] 7.07% | viability, T/C [18] 7.02% | viability, T/C [24] 5.25% | viability, T/C [30] 5.08% | viability, T/C [31] 0.08% | viability, T/C [32] 0.12% | viability, T/C [33] 0.15% | viability, T/C [34] 0.11% | viability, T/C [35] 0.15% | viability, T/C [36] 0.14%
< 31.6 nM: IC50 (second compound 0.1 µM) | IC50 (second compound 0.316 µM) | IC50 (second compound 1 µM) | IC50 (second compound 3.16 µM) | IC50 (second compound 10 µM)
39.3 nM: IC50 (second compound 0.0316 µM)

Cc1cccc(N(C)C(=O)C2C(O)CCN2c2nc(C)cc(C(F)(F)F)c2C#N)c1 (centres undefined) + Cc1cnc(CNC(=O)c2c(=O)c3ccc(N4CCCN(C)CC4)nc3n3c2sc2ccccc23)cn1
< 31.6 nM: IC50 (second compound 0.1 µM) | IC50 (second compound 0.316 µM) | IC50 (second compound 1 µM) | IC50 (second compound 3.16 µM) | IC50 (second compound 10 µM)
inactive: viability, T/C [1] 85.6% | viability, T/C [2] 82.6% | viability, T/C [3] 81.8% | viability, T/C [4] 53.1% | viability, T/C [5] 91.4% | viability, T/C [6] 75% | viability, T/C [7] 38.5% | viability, T/C [8] 36.7% | viability, T/C [9] 29.3% | viability, T/C [10] 36.1% | viability, T/C [11] 39.3% | viability, T/C [12] 33.9% | viability, T/C [13] 27.7% | viability, T/C [14] 30.4% | viability, T/C [15] 26.6% | viability, T/C [16] 25.9% | viability, T/C [17] 28.6% | viability, T/C [18] 23% | viability, T/C [19] 19.2% | viability, T/C [20] 22.1% | viability, T/C [21] 22.1% | viability, T/C [22] 20.2% | viability, T/C [23] 22.9% | viability, T/C [24] 19.1% | viability, T/C [25] 20.1% | viability, T/C [26] 18.9% | viability, T/C [27] 20.4% | viability, T/C [28] 18.8% | viability, T/C [29] 18% | viability, T/C [30] 17.2%
> 10000 nM: IC50 (second compound 0.0316 µM)
active: viability, T/C [31] 0.19% | viability, T/C [32] 0.22% | viability, T/C [33] 0.21% | viability, T/C [34] 0.21% | viability, T/C [35] 0.24% | viability, T/C [36] 0.21%
